Results taken from ChEMBL document CHEMBL4354815, “Fibrinolysis Inhibitors: Potential Drugs for the Treatment and Prevention of Bleeding” (J Med Chem, 2020).
Where a SMILES comes first, the peptide text is derived from it. [ ]: non-standard residue; d: D form. Met(O2) = CS(=O)(=O)CC[C@H](N)C(=O)O

Key:
[1] = biological target: T1, Urokinase-type plasminogen activator (Homo sapiens, UniProt P00749); experiment: Inhibition of human urokinase-type plasminogen activator using S-2444 as substrate
Blood = experiment: Anti-fibrinolytic activity in human whole blood assessed as reduction in clot lysis incubated for 5 mins in presence of tissue-type plasminogen activator by rotational thromboelastometry; assay type: functional, tissue-based
Plasminogen [2] = biological target: T2, Plasminogen (Homo sapiens, UniProt P00747); experiment: Inhibition of human plasmin using S-2251 as substrate after 30 mins by spectrophotometric method
Plasminogen [3] = biological target: T2, Plasminogen; experiment: Inhibition of human plasmin
Plasminogen [4] = biological target: T2, Plasminogen; experiment: Inhibition of human plasmin assessed as km using S-2251 as the substrate
[5] = biological target: Vitamin K-dependent protein C (Homo sapiens, UniProt P04070); experiment: Inhibition of human activated protein […] C using H-D-Lys(Cbo)-Pro-Arg-pNA as substrate
[6] = Inhibition of human urinary kallikrein using H-D-Val-Leu-Arg-pNA as substrate
[7] = biological target: T3, Complement C1s subcomponent (Homo sapiens, UniProt P09871); experiment: Inhibition of human Complement C1s subcomponent using Val-Ser-Arg-pNA as substrate
T3 sequence (P09871 whole entry): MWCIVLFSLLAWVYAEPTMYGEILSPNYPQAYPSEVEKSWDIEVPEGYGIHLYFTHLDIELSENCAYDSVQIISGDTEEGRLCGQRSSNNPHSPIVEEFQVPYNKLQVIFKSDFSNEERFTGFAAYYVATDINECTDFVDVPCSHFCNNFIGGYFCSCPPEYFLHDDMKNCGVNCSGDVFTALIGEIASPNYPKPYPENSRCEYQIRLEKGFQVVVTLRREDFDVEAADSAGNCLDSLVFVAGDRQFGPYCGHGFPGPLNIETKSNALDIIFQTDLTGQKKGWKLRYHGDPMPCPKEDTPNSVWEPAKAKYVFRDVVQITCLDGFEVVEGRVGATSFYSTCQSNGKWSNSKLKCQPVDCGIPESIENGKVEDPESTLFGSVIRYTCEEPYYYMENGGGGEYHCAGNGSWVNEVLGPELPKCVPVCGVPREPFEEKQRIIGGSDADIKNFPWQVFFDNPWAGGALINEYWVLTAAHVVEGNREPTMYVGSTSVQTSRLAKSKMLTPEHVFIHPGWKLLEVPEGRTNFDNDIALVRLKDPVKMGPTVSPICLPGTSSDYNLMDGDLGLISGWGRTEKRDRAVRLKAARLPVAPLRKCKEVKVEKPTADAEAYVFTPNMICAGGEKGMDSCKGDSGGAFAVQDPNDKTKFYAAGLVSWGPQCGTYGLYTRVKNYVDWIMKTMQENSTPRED

[8] = biological target: T4, Complement C1r subcomponent (Homo sapiens, UniProt P00736); experiment: Inhibition of human Complement C1r subcomponent using Val-Ser-Arg-pNA as substrate
T4 sequence (P00736 whole entry): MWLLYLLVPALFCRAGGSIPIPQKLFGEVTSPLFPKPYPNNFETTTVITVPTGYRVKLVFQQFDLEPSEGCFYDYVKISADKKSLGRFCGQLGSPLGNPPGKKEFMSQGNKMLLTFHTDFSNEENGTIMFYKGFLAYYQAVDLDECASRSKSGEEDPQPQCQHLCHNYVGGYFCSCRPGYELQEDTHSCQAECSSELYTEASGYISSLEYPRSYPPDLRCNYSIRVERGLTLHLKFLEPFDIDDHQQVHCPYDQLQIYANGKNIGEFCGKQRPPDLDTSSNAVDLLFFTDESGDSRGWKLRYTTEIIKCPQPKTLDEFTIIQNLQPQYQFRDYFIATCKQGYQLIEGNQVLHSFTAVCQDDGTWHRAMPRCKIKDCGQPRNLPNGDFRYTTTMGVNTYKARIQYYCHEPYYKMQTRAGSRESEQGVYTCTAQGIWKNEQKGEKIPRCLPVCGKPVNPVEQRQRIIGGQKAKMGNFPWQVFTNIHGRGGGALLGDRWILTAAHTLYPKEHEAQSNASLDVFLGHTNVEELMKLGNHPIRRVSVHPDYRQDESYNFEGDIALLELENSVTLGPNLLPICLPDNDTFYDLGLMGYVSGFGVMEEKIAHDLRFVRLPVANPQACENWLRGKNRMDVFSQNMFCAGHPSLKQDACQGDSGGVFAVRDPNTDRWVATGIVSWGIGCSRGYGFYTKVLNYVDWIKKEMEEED

Prothrombin [9] = biological target: T5, Prothrombin (Homo sapiens, UniProt P00734); experiment: Inhibition of human factor 2a using Mes-d-Cha-Gly-Arg-pNA as substrate
Coagulation factor X [10] = biological target: T6, Coagulation factor X (Homo sapiens, UniProt P00742); experiment: Inhibition of human factor 10a using MeOCO-d-Cha-Gly-Arg-pNA as substrate
Coagulation factor XI = Coagulation factor XI (Homo sapiens, UniProt P03951); experiment: Inhibition of human factor 11a using H-D-Lys(Cbo)-Pro-Arg-pNA as substrate
Coagulation factor XII = biological target: T7, Coagulation factor XII (Homo sapiens, UniProt P00748); experiment: Inhibition of human factor 12a using CHA-Gly-Arg- pNA as substrate
T7 sequence (P00748 whole entry): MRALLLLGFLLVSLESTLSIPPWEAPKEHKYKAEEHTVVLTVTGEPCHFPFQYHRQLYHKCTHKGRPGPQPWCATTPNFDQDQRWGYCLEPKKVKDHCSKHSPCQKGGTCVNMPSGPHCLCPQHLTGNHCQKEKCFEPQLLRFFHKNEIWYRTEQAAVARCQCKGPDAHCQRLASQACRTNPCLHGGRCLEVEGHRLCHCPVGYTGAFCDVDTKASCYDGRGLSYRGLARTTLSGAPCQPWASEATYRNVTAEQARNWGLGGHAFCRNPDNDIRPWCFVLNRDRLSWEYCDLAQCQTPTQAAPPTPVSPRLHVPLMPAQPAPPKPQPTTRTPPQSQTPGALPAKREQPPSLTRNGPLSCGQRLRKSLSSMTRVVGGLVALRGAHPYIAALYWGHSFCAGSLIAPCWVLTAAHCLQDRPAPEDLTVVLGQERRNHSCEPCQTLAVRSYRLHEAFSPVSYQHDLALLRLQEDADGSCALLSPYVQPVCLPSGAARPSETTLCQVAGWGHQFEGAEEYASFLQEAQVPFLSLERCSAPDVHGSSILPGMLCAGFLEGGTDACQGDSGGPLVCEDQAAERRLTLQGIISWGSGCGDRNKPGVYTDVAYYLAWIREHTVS

[11] = biological target: T8, Tissue-type plasminogen activator (Homo sapiens, UniProt P00750); experiment: Inhibition of human tissue-type plasminogen activator using Mes-d-Cha- Gly-Arg-pNA as substrate
Plasminogen [12] = biological target: T2, Plasminogen; experiment: Inhibition of human plasmin assessed as reduction in proteolysis activity in presence of fibrinogen after 90 mins by SDS-PAGE analysis
Plasminogen [13] = biological target: T2, Plasminogen; experiment: Inhibition of plasmin (unknown origin) using D-Val-Leu-Lys-p-nitroanilide as substrate
[14] = Half life in dog, iv; assay type: ADME, Canis lupus familiaris; conditions: in vivo
[15] = Half life in rat, iv; assay type: ADME; conditions: in vivo
[16] = Plasma concentration in human at 0.219 mg/kg/h by liquid chromatography-tandem mass spectrometry; assay type: ADME, organism-based; conditions: in vivo
[17] = biological target: T8, Tissue-type plasminogen activator; experiment: Inhibition of tissue-type plasminogen activator (unknown origin)
[18] = biological target: T1, Urokinase-type plasminogen activator; experiment: Inhibition of urokinase-type plasminogen activator (unknown origin)
Plasminogen [19] = biological target: T2, Plasminogen; experiment: Inhibition of plasmin (unknown origin)
Plasminogen [20] = biological target: T2, Plasminogen; experiment: Inhibition of plasmin (unknown origin) assessed as reduction in amidolytic activity using S-2251 as the substrate after 4 mins
Plasminogen [21] = biological target: T2, Plasminogen; experiment: Inhibition of human plasmin assessed as reduction in fibrinolysis
Coagulation factor X [22] = biological target: T6, Coagulation factor X; experiment: Inhibition of human factor 10a (unknown origin) assessed as reduction in hydrolysis activity preincubated for 10 mins followed by spectrozyme FXa
Prothrombin [23] = biological target: T5, Prothrombin; experiment: Inhibition of thrombin (unknown origin) assessed as reduction in hydrolysis activity preincubated for 10 mins followed by spectrozyme TH
Plasminogen [24] = biological target: T2, Plasminogen; experiment: Competitive inhibition of human plasmin assessed as reduction in hydrolytic activity using S-2251 as substrate by spectrophotometric method

T2 sequence (P00747 97-580 limits assumed): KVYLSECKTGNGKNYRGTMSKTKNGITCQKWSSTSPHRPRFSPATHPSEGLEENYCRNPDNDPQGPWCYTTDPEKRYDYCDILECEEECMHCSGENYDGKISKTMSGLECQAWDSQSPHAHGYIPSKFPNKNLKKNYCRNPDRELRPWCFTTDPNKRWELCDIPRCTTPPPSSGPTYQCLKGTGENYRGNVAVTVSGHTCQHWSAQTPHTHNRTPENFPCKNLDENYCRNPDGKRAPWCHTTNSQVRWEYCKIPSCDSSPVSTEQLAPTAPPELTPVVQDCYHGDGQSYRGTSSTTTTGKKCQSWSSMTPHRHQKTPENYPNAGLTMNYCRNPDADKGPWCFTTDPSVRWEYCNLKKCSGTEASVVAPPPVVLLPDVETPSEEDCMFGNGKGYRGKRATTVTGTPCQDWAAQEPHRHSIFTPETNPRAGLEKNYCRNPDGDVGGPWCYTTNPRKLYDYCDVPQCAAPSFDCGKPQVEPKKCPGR
T2 sequence (P00747 581-810 limits assumed): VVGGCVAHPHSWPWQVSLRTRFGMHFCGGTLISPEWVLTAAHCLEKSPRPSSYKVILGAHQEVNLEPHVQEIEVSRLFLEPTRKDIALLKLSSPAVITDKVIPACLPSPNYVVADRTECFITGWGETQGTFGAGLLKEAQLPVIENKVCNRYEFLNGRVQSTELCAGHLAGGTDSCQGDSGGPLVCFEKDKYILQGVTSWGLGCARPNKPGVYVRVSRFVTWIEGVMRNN
T6 sequence (P00742 41-179 limits assumed): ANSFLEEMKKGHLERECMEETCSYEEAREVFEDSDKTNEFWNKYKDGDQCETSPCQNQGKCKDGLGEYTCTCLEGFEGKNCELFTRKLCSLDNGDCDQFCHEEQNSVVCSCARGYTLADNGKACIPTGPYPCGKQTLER
T6 sequence (P00742 235-488 limits assumed): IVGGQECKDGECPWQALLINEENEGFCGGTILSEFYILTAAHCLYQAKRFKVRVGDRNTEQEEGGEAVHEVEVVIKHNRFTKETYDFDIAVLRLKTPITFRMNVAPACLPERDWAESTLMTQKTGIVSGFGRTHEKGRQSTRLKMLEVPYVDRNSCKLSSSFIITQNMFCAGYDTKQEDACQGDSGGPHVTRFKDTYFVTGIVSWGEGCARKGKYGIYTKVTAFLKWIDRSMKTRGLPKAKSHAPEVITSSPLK
T8 sequence (P00750 whole entry): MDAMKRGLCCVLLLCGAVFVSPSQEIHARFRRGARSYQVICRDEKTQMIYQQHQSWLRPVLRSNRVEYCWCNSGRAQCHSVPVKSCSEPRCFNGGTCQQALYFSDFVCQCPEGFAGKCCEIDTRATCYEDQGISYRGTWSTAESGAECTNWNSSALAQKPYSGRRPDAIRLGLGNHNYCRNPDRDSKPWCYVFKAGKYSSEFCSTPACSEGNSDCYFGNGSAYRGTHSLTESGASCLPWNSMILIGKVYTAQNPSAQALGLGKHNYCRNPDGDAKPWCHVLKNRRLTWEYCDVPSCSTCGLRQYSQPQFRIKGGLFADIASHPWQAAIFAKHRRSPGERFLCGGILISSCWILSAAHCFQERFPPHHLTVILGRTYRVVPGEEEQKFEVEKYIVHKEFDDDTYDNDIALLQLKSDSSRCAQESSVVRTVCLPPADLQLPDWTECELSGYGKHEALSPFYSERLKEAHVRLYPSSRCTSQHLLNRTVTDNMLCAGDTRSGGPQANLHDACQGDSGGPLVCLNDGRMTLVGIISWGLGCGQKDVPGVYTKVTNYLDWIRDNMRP
Sequence of Vitamin K-dependent protein C (P04070 43-197 limits assumed): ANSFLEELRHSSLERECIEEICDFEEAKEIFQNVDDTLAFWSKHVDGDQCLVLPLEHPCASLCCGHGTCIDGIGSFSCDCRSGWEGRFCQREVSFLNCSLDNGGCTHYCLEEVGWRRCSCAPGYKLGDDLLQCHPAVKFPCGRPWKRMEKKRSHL
Sequence of Vitamin K-dependent protein C (P04070 212-461 limits assumed): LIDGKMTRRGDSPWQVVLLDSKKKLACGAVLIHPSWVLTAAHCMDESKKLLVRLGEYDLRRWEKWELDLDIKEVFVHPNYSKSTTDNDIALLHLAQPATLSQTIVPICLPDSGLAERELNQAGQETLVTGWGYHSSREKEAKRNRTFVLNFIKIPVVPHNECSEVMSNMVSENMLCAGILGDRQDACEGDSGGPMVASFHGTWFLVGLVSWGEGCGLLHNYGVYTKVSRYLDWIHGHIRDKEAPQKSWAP
Sequence of Coagulation factor XI (P03951 19-387 limits assumed): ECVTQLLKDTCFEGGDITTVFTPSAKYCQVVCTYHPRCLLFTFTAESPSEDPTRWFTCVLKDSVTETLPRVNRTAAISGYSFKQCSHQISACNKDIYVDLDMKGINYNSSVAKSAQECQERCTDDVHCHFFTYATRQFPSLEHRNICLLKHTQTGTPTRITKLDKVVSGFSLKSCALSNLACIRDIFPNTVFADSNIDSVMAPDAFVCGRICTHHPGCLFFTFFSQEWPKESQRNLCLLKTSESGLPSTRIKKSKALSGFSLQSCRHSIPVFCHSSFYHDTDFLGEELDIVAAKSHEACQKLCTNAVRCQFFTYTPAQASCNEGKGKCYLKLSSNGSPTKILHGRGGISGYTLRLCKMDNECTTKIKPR
Sequence of Coagulation factor XI (P03951 388-625 limits assumed): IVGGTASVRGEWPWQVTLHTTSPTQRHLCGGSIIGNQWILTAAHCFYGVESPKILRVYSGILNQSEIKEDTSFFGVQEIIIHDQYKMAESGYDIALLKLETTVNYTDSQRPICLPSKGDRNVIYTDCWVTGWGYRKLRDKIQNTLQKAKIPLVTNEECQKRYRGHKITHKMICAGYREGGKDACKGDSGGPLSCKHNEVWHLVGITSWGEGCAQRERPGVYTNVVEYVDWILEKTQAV

## NC[C@H]1CC[C@H](C(=O)O)CC1 [TRANEXAMIC ACID]
[1]
  Ki: 2000 µM
Blood
  IC50: 2.75 µM

## N=C(N)Nc1ccc(C(=O)Oc2ccc(S(N)(=O)=O)cc2)cc1
Plasminogen [2]
  Ki: 0.31 µM

## N=C(N)c1cccc(C[C@H](NS(=O)(=O)c2ccc3ccccc3c2)C(=O)N2CCCC(C(=O)NCc3cccs3)C2)c1 (stereo partly drawn)
Plasminogen [3]
  Ki: 0.14 µM

## CC[C@@H](C)[C@@H](N)C(=O)N[C@@H](Cc1ccccc1)C(=O)N[C@@H](CCCCN)C(=O)Nc1ccc([N+](=O)[O-])cc1
Plasminogen [4]
  Km: 30 µM

## N=C(N)c1ccc(CNC(=O)[C@H](CCC2CCNCC2)NC(=O)[C@@H](CCCc2ccccc2)NS(=O)(=O)Cc2ccccc2)cc1
[5]
  Ki: > 0.13 µM
[6]
  Ki: > 0.13 µM
[7]
  Ki: > 0.13 µM
[8]
  Ki: > 0.13 µM
Prothrombin [9]
  Ki: > 0.13 µM
Coagulation factor X [10]
  Ki: > 0.13 µM
Coagulation factor XI
  Ki: > 0.13 µM
Coagulation factor XII
  Ki: > 0.13 µM
[11]
  Ki: > 0.13 µM

## CC(=O)N[C@@H](CCCCN)C(=O)N[C@@H](CCS(C)(=O)=O)C(=O)N[C@@H](Cc1ccc(O)cc1)C(=O)N[C@H](C=O)CCCNC(=N)N (Ac-K[Met(O2)]YR-aldehyde)
Plasminogen [12]
  Ki: 0.0033 µM

## O=C(CCC1CCCC(NC(=O)[C@H](Cc2c[nH]c3ccccc23)NC(=O)OCc2ccccc2)C1=O)N[C@@H](Cc1c[nH]c2ccccc12)C(=O)O (mixture of isomers)
Plasminogen [13]
  Ki: 5 to 10 µM

## N=C(N)c1ccc(CNC(=O)[C@H](Cc2cccc(CN)c2)NC(=O)[C@@H](CCCc2ccccc2)NS(=O)(=O)Cc2cccc(C(=O)O)c2)cc1
[14]
  half-life: 20 min
[15]
  half-life: 20 min
Blood
  IC50: 0.15 µM
[16]
  concentration: 900 nM

## N=C(N)c1ccc(CNC(=O)[C@@H]2CCN2C(=O)[C@H](NCC(=O)O)C2CCCCC2)cc1
[17]
  Ki: 0.9 µM
[18]
  Ki: 6.3 µM
Plasminogen [19]
  Ki: 0.7 µM

## NCCCC[C@H](NC(=O)[C@H]1CC[C@H](CN)CC1)C(=O)Nc1ccc(C(=O)c2ccccc2)cc1
Plasminogen [20]
  IC50: 15 µM
Plasminogen [21]
  IC50: 6.1 µM

## O=c1c(OS(=O)(=O)O)c(-c2ccc(OS(=O)(=O)O)c(OS(=O)(=O)O)c2)oc2cc(OS(=O)(=O)O)cc(OCc3cn(CCCCCCCCn4c(-c5ccc(OS(=O)(=O)O)cc5)nc5ccccc5c4=O)nn3)c12
Coagulation factor X [22]
  IC50: > 250 µM
Prothrombin [23]
  IC50: > 500 µM

## CCOC(=O)c1ccc(OC(=O)CCCCCNC(=N)N)cc1 [GABEXATE]
Plasminogen [24]
  Ki: 1.9 µM
